These results are taken from paper PMC3967968 (Molecular Biology of the Cell, 2014).

One assay deals with human EB1. The note with it: read-out: Kd with human EB1, ref Honnappa et al. 2005; cited from earlier work.
For another assay, the target named is T1, MBP-fused Drosophila EB1 (Drosophila, UniProt Q9XZ57 1-290).
T1 sequence (looked up): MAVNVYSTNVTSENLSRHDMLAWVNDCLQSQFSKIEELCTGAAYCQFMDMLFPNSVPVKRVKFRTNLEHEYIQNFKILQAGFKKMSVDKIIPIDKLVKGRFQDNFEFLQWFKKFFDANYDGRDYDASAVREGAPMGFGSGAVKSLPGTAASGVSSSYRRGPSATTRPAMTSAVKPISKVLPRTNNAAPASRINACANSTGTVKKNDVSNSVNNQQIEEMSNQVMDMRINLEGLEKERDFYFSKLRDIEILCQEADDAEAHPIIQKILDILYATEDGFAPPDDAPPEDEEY
As to the kind of experiment: ITC. For orientation: In ITC the heat of successive injections is recorded.

A word on the Kd: it is the equilibrium constant for the complex coming apart. Consider “adenomatous polyposis coli protein: native human EB1-interacting protein”, for which, on human EB1, the Kd is ~5000 nM.
Consider RTRGRSRIPRWVGRRG [aptamer Perfect peptide], for which, in the assay with MBP-fused Drosophila EB1, the Kd is ~570 nM.
